# Assay results: ChEMBL document CHEMBL1201862, “PubChem BioAssay data set” (2004)
#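 Exposure lasted 48 hours, with cells grown in 96-well plates and compounds tested at five concentrations. GI50 = concentration required for 50% inhibition of growth.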 Activity calls are given as the source filed them. Rule as the data show it: active = GI50 up to about 1.1 µM and inactive = higher. Starred links: 1 amine or outer side, 2 acyl side, 3 side chain; linkers in the order of their positions; H or OH if unused. Positions of bridges follow the written chain, without caps; N, C: chain ends. Non-standard residues stand in square brackets, D forms with d. Residues, ends and D or L forms follow the SMILES beside them. Chains are numbered I, II in the order given. Actinocin(9to1) = Cc1c2oc3c(C)ccc(C(=O)[*:1])c3nc-2c(C(=O)[*:2])c(N)c1=O; NMeV = CN[CH](C(=O)O)C(C)C; Sar = CNCC(=O)O
# Legend:
# Test in all cases: DTP human tumour cell line panel, 48 h
# CAKI-1 = test system: CAKI-1
# K562 = test system: K562
# SNB-75 = test system: SNB-75
# NCI-H522 = test system: NCI-H522
# HCT-15 = test system: HCT-15
# HOP-62 = test system: HOP-62
# SK-MEL-5 = test system: SK-MEL-5
# HT-29 = test system: HT-29
# NCI-H226 = test system: NCI-H226
# HCT-116 = test system: HCT-116
# SF-268 = test system: SF-268
# COLO 205 = test system: COLO 205
# T47D = test system: T47D
# MDA-MB-435 = test system: MDA-MB-435
# UO-31 = test system: UO-31
# RXF 393 = test system: RXF 393
# EKVX = test system: EKVX
# A498 = test system: A498
# M19-MEL = test system: M19-MEL
SMILES,GI50 (CAKI-1),GI50 (K562),GI50 (SNB-75),GI50 (NCI-H522),GI50 (HCT-15),GI50 (HOP-62),GI50 (SK-MEL-5),GI50 (HT-29),GI50 (NCI-H226),GI50 (HCT-116),GI50 (SF-268),GI50 (COLO 205),GI50 (T47D),GI50 (MDA-MB-435),GI50 (UO-31),GI50 (RXF 393),GI50 (EKVX),GI50 (A498),GI50 (M19-MEL)
CCc1nc2cc3cccnc3c(Cl)c2[nH]c1=O,75.7 µM (inactive),> 100 µM (inactive),17.8 µM (inactive),> 100 µM (inactive),> 100 µM,> 100 µM (inactive),> 100 µM (inactive),> 100 µM (inactive),> 100 µM (inactive),> 100 µM (inactive),> 100 µM (inactive),> 100 µM (inactive),63.4 µM (inactive),> 100 µM (inactive),> 100 µM (inactive),31.8 µM (inactive),> 100 µM (inactive),> 100 µM (inactive),–
CCN(CC)C(=O)CCN1CC1,> 10 µM (inactive),> 10 µM (inactive),> 10 µM (inactive),> 10 µM (inactive),> 10 µM,> 10 µM (inactive),> 10 µM (inactive),> 10 µM (inactive),> 10 µM (inactive),> 10 µM (inactive),> 10 µM (inactive),> 10 µM (inactive),> 10 µM (inactive),> 10 µM (inactive),> 10 µM (inactive),> 10 µM (inactive),> 10 µM (inactive),> 10 µM (inactive),–
Oc1cc(Cl)cc2cccnc12,5 µM (inactive),0.396 µM (active),17.2 µM (inactive),0.348 µM (active),0.552 µM,> 35 µM (inactive),0.902 µM (active),9.31 µM (inactive),6.79 µM (inactive),1.43 µM (inactive),0.296 µM (active),6.65 µM (inactive),2.25 µM (inactive),3.52 µM (inactive),0.847 µM (active),3.02 µM (inactive),0.804 µM (active),11.5 µM (inactive),–
Cc1ccc(CN2CCN(Cc3ccc(C)o3)C(C)C2)o1 (stereo unspecified),> 100 µM (inactive),> 100 µM (inactive),> 100 µM (inactive),> 100 µM (inactive),> 100 µM,> 100 µM (inactive),> 100 µM (inactive),> 100 µM (inactive),> 100 µM (inactive),> 100 µM (inactive),> 100 µM (inactive),> 100 µM (inactive),> 100 µM (inactive),> 100 µM (inactive),> 100 µM (inactive),> 100 µM (inactive),> 100 µM (inactive),> 100 µM (inactive),–
O=c1[nH]c(=S)[nH]n1C(=S)n1[nH]c(=S)[nH]c1=O,> 100 µM (inactive),> 100 µM (inactive),> 100 µM (inactive),> 100 µM (inactive),> 100 µM,> 100 µM (inactive),> 100 µM (inactive),> 100 µM (inactive),> 100 µM (inactive),> 100 µM (inactive),> 100 µM (inactive),> 100 µM (inactive),> 100 µM (inactive),> 100 µM (inactive),> 100 µM (inactive),> 100 µM (inactive),> 100 µM (inactive),> 100 µM (inactive),–
Cc1nc2[nH]ncn2c(=O)c1CCCl,> 10 µM (inactive),> 10 µM (inactive),> 10 µM (inactive),> 10 µM (inactive),> 10 µM,> 10 µM (inactive),> 10 µM (inactive),> 10 µM (inactive),> 10 µM (inactive),> 10 µM (inactive),> 10 µM (inactive),> 10 µM (inactive),> 10 µM (inactive),> 10 µM (inactive),> 10 µM (inactive),> 10 µM (inactive),> 10 µM (inactive),> 10 µM (inactive),–
O=C(NC1C(=O)NC(CCc2ccccc2)NC1=O)OCc1ccccc1 (stereo unspecified),> 100 µM (inactive),> 100 µM (inactive),> 100 µM (inactive),> 100 µM (inactive),> 100 µM,> 100 µM (inactive),> 100 µM (inactive),> 100 µM (inactive),> 100 µM (inactive),> 100 µM (inactive),> 100 µM (inactive),> 100 µM (inactive),> 100 µM (inactive),> 100 µM (inactive),> 100 µM (inactive),> 100 µM (inactive),> 100 µM (inactive),> 100 µM (inactive),–
CN1CCN(c2ccc3c(c2)NCC(=O)N3)CC1,> 100 µM (inactive),> 100 µM (inactive),> 100 µM (inactive),> 100 µM (inactive),> 100 µM,> 100 µM (inactive),> 100 µM (inactive),> 100 µM (inactive),> 100 µM (inactive),> 100 µM (inactive),> 100 µM (inactive),> 100 µM (inactive),> 100 µM (inactive),> 100 µM (inactive),> 100 µM (inactive),> 100 µM (inactive),96.4 µM (inactive),> 100 µM (inactive),–
COc1ccc2[nH]c3c(C)c4cc[n+](COC(=O)c5ccccc5)cc4c(C)c3c2c1,0.569 µM (active),0.221 µM (active),0.703 µM (active),0.391 µM (active),–,2.66 µM (inactive),–,0.117 µM (active),–,0.0378 µM (active),0.286 µM (active),–,–,–,1.76 µM (inactive),–,–,1.11 µM (active),0.381 µM (active)
C=C1C(=O)O[C@@]23C1CC[C@@H](C)C2CC[C@@]1(C)OC31 (stereo partly specified),5.75 µM (inactive),7.78 µM (inactive),3.13 µM (inactive),6.32 µM (inactive),9.33 µM,10 µM (inactive),3.24 µM (inactive),5.86 µM (inactive),23.9 µM (inactive),8.65 µM (inactive),13.7 µM (inactive),1.86 µM (inactive),4.03 µM (inactive),4.25 µM (inactive),5.69 µM (inactive),16.7 µM (inactive),12.5 µM (inactive),18.2 µM (inactive),–
CC(=O)/C=C/C1=C(C)CCCC1(C)CC(C)C (stereo unspecified),42.8 µM (inactive),16 µM (inactive),21.6 µM (inactive),18.4 µM (inactive),15.1 µM,57.9 µM (inactive),16.9 µM (inactive),28 µM (inactive),33.5 µM (inactive),25.5 µM (inactive),39.7 µM (inactive),30.3 µM (inactive),15.3 µM (inactive),32.5 µM (inactive),36.9 µM (inactive),14.8 µM (inactive),39.7 µM (inactive),24.2 µM (inactive),–
COc1ccc2ccccc2c1/C=C/C(=O)c1ccccc1,4.8 µM (inactive),1.93 µM (inactive),1.08 µM (active),2.46 µM (inactive),2.9 µM,2.68 µM (inactive),4.19 µM (inactive),3.43 µM (inactive),3.1 µM (inactive),2.99 µM (inactive),2.7 µM (inactive),3.25 µM (inactive),2.43 µM (inactive),2.53 µM (inactive),2.82 µM (inactive),1.33 µM (inactive),3.61 µM (inactive),3.56 µM (inactive),–
COc1cc2ccccc2c2cc([N+](=O)[O-])oc12,0.48 µM (active),0.319 µM (active),2.62 µM (inactive),0.183 µM (active),1.03 µM,3.37 µM (inactive),0.0948 µM (active),0.406 µM (active),1.11 µM (active),0.249 µM (active),0.537 µM (active),0.379 µM (active),5.36 µM (inactive),0.214 µM (active),0.618 µM (active),0.207 µM (active),4.19 µM (inactive),0.177 µM (active),–
"Cc1c2oc3c(C)ccc(C(=O)NC4C(=O)NC(Cc5ccc(O)cc5)C(=O)N5CCCC5C(=O)N(C)CC(=O)N(C)C(C(C)C)C(=O)OC4C)c3nc-2c(C(=O)NC2C(=O)NC(Cc3ccc(O)cc3)C(=O)N3CCCC3C(=O)N(C)CC(=O)N(C)C(C(C)C)C(=O)OC2C)c(N)c1=O (stereo unspecified) (I: TYP[Sar][NMeV] / II: TYP[Sar][NMeV]; ester I:1-I:C, II:1-II:C; linker I:N-II:N via Actinocin(9to1); configuration not given here)",3.57 µM (inactive),0.354 µM (active),0.139 µM (active),0.877 µM (active),8.65 µM,2.33 µM (inactive),0.163 µM (active),0.755 µM (active),0.957 µM (active),0.11 µM (active),0.16 µM (active),0.403 µM (active),1.36 µM (inactive),1.93 µM (inactive),17.9 µM (inactive),0.406 µM (active),70.5 µM (inactive),16 µM (inactive),–
O=C1c2cccnc2-c2nccc3c2c1nc1ccccc13 [ASCIDIDEMIN],0.215 µM (active),0.166 µM (active),0.389 µM (active),0.0975 µM (active),0.037 µM,0.097 µM (active),0.0583 µM (active),1.19 µM (inactive),0.21 µM (active),0.0352 µM (active),0.109 µM (active),1.99 µM (inactive),0.29 µM (active),0.19 µM (active),0.143 µM (active),0.14 µM (active),0.912 µM (active),0.27 µM (active),–
CC1CC(C)(O)CC(C(O)CC2CC(=O)NC(=O)C2)C1=O (stereo unspecified) [RESACTIN A],< 0.01 µM (active),0.0309 µM (active),0.0225 µM (active),< 0.0135 µM (active),0.0989 µM,0.027 µM (active),0.0132 µM (active),0.037 µM (active),0.0689 µM (active),0.0308 µM (active),0.0455 µM (active),0.0381 µM (active),0.0431 µM (active),0.0432 µM (active),0.055 µM (active),0.0344 µM (active),0.0505 µM (active),0.067 µM (active),–
